Data taken from patent publication US7906522B2, “2-aminoquinazoline derivatives” (Kyowa Hakko Kirin Co., Ltd, priority 2005, dated 2011).

The compounds below were run against T1, Activated human p38α (Homo sapiens, UniProt Q16539) (assay: p38MAP kinase inhibition test). Settings: at a concentration of 1 μmol/L; substrate myelin basic protein, ATP 20 μmol/L, [γ-32P]ATP; read-out: enzyme inhibitory activity.
T1 construct: purchased Upstate Biotechnology Inc. 14-251
Format: biochemical
Method in brief: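 Radiometric kinase assay with myelin basic protein (20 μg/assay) as substrate, 20 μmol/L ATP plus [γ-32P]ATP, MOPS pH 7.2 with MgCl2 18.75 mmol/L. Reaction run 15 min at 30° C., stopped with phosphoric acid; 32P-MBP captured on phosphocellulose and counted by scintillation.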

T1 sequence (Q16539 whole entry): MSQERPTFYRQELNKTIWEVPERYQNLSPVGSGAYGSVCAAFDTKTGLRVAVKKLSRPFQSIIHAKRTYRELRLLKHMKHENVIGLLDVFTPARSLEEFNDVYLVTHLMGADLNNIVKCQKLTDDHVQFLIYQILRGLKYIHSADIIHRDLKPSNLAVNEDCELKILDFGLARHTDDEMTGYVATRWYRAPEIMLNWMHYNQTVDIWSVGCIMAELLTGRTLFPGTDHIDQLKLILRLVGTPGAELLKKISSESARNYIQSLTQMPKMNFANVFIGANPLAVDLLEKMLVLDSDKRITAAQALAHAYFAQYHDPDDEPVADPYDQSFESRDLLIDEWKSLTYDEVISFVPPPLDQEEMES

Inhibition at 1 µM, ≥ 50%:
CC(C)Nc1ncc2cc(-c3ccccc3Cl)c(O)cc2n1 [Compound 19, 6-(2-Chlorophenyl)-7-hydroxy-2-isopropylaminoquinazoline]
O=C(c1ccccc1)c1cc2cnc(Nc3c(Cl)cccc3Cl)nc2cc1O [Compound 141, 6-Benzoyl-2-(2,6-dichloroanilino)-7-hydroxyquinazoline]
COc1cc2nc(NC(C)C)ncc2cc1-c1cccc(NC(=O)c2ccccc2C(F)(F)F)c1 [Compound 217, 2-Isopropylamino-7-methoxy-6-{3-[(2-trifluoromethylphenyl)carbonylamino]phenyl}quinazoline]
COc1cc2nc(NC3CCN(S(=O)(=O)C(F)(F)F)CC3)ncc2cc1-c1ccccc1Cl [Compound 13, 6-(2-Chlorophenyl)-7-methoxy-2-[1-(trifluoromethylsulfonyl)piperidin-4-ylamino]quinazoline]
COc1cc2nc(NC(C)(C)C)ncc2cc1-c1ccccc1C [Compound 167, 2-(tert-Butylamino)-7-methoxy-6-(2-methylphenyl)quinazoline]
CC(C)Nc1ncc2cc(-c3ccccc3Cl)c(OCC#N)cc2n1 [Compound 21, 6-(2-Chlorophenyl)-7-cyanomethyloxy-2-isopropylaminoquinazoline]
N[C@H]1CC[C@H](Nc2ncc3cc(C(=O)c4ccccc4)c(O)cc3n2)CC1 [Compound 139, 2-(trans-4-Aminocyclohexylamino)-6-benzoyl-7-hydroxyquinazoline]
COc1cc2nc(NC(C)C)ncc2cc1-c1cccc(N)c1 [Compound 50, 6-(3-Aminophenyl)-2-isopropylamino-7-methoxyquinazoline]
COc1cc2nc(NC(C)C)ncc2cc1-c1cccc(NC(=O)c2cc3ccccc3[nH]2)c1 [Compound 211, 6-{3-[(1H-indol-2-yl)carbonylamino]phenyl}-2-isopropylamino-7-methoxyquinazoline]
COc1cc2nc(NC(C)C)ncc2cc1-c1cc(NC(C)=O)ccc1F [Compound 233, 6-(5-Acetylamino-2-fluorophenyl)-2-isopropylamino-7-methoxyquinazoline]
COc1cc2nc(NC3CCN(S(=O)(=O)CC(F)(F)F)CC3)ncc2cc1-c1ccccc1Cl [Compound 14, 6-(2-Chlorophenyl)-7-methoxy-2-[1-(2,2,2-trifluoroethylsulfonyl)piperidin-4-ylamino]quinazoline]
CC(C)Nc1ncc2cc(C(=O)c3ccccc3Cl)c(O)cc2n1 [Compound 125, 6-(2-Chlorobenzoyl)-7-hydroxy-2-(isopropylamino)quinazoline]
COc1cc2nc(NC3CCN(S(C)(=O)=O)CC3)ncc2cc1-c1ccccc1O [Compound 241, 6-(2-Hydroxyphenyl)-7-methoxy-2-[1-(methylsulfonyl)piperidin-4-ylamino]quinazoline]
COc1cc2nc(N)ncc2cc1-c1cc(NC(C)=O)ccc1C [Compound 249, 6-(5-Acetylamino-2-methylphenyl)-2-amino-7-methoxyquinazoline]
COc1cc2nc(NC(C)C)ncc2cc1-c1ccccc1[N+](=O)[O-] [Compound 55, 2-Isopropylamino-7-methoxy-6-(2-nitrophenyl)quinazoline]
Cc1ccc(NC(=O)C2CC2)cc1-c1ccc2nc(NC(C)C)ncc2c1 [Compound 264, 6-(5-Cyclopropylcarbonylamino-2-methylphenyl)-2-(isopropylamino)quinazoline]
COc1cc2nc(NC(C)C)ncc2cc1-c1ccccc1C#N [Compound 183, 6-(2-Cyanophenyl)-2-isopropylamino-7-methoxyquinazoline]
CC[C@H](C)Nc1ncc2cc(-c3cc(NC(=O)c4ccc[nH]4)ccc3CO)ccc2n1 [Compound 273, (S)-2-(sec-Butylamino)-6-{2-hydroxymethyl-5-[(1H-pyrrol-2-yl)carbonylamino]phenyl}quinazoline]
CC(C)Nc1ncc2cc(-c3cccc(NC(=O)c4ccc[nH]4)c3)ccc2n1 [Compound 258, 2-Isopropylamino-6-{3-[(1H-pyrrol-2-yl)carbonylamino]phenyl}quinazoline]
COc1cc2nc(NC(C)C)ncc2cc1-c1cccc(NC(=O)c2cccc(N(C)C)c2)c1 [Compound 54, 2-Isopropylamino-7-methoxy-6-{3-[(3-dimethylaminophenyl)carbonylamino]phenyl}quinazoline]
CC(C)Nc1ncc2cc(-c3cccc4ccccc34)c(O)cc2n1 [Compound 326, 7-Hydroxy-2-isopropylamino-6-(naphthalen-1-yl)quinazoline]
COc1cc2nc(NC(C)C)ncc2cc1-c1ccccc1NC(C)=O [Compound 56, 6-[2-(Acetylamino)phenyl]-2-isopropylamino-7-methoxyquinazoline]
CC(=O)Nc1cccc(-c2cc3cnc(NC(C)C)nc3cc2O)c1 [Compound 287, 6-[3-(Acetylamino)phenyl]-7-hydroxy-2-(isopropylamino)quinazoline]
COc1cc2nc(NC(C)C)ncc2cc1-c1cccc(C=O)c1 [Compound 197, 6-(3-Formylphenyl)-2-isopropylamino-7-methoxyquinazoline]
CC(C)Nc1ncc2cc(-c3ccccc3Cl)c(OCCCO)cc2n1 [Compound 24, 6-(2-Chlorophenyl)-7-(3-hydroxypropyloxy)-2-isopropylaminoquinazoline]
CC(C)Nc1ncc2cc(C(=O)c3ccc(F)c(F)c3)c(O)cc2n1 [Compound 129, 6-(3,4-Difluorobenzoyl)-7-hydroxy-2-(isopropylamino)quinazoline]
CCOC(=O)/C=C/c1c(OC)c(-c2ccccc2Cl)cc2cnc(NC(C)C)nc12 [Compound 73, 6-(2-Chlorophenyl)-8-[(E)-2-(ethoxycarbonyl)ethenyl]-7-methoxy-2-(isopropylamino)quinazoline]
CC(C)Nc1ncc2cc(C(=O)c3ccccc3F)c(O)cc2n1 [Compound 126, 6-(2-Fluorobenzoyl)-7-hydroxy-2-(isopropylamino)quinazoline]
CS(=O)(=O)N1CCC(Nc2ncc3cc(-c4cccc(O)c4)ccc3n2)CC1 [Compound 276, 6-(3-Hydroxyphenyl)-2-[1-(methylsulfonyl)piperidin-4-ylamino]quinazoline]
COCOc1c(-c2ccccc2Cl)cc2cnc(NC(C)C)nc2c1-c1cccc(C(=O)O)c1 [Compound 93, 8-(3-Carboxyphenyl)-6-(2-chlorophenyl)-2-isopropylamino-7-(methoxymethyloxy)quinazoline]
CC(C)Nc1ncc2cc(-c3cc(NC(=O)c4ccc[nH]4)ccc3O)ccc2n1 [Compound 267, 6-{2-Hydroxy-5-[(1H-pyrrol-2-yl)carbonylamino]phenyl}-2-(isopropylamino)quinazoline]
CC(=O)Nc1ccc(C)c(-c2cc3cnc(NC(C)C)nc3cc2O)c1 [Compound 289, 6-(5-Acetylamino-2-methylphenyl)-7-hydroxy-2-(isopropylamino)quinazoline]
Cc1ccccc1-c1cc2cnc(Nc3c(C)cccc3C(C)C)nc2cc1O [Compound 177, 7-Hydroxy-2-(2-isopropyl-6-methylanilino)-6-(2-methylphenyl)quinazoline]
COc1cc2nc(NC(C)C)ncc2cc1-c1cccc(NC(=O)Nc2ccccc2)c1 [Compound 210, 2-Isopropylamino-7-methoxy-6-[3-(3-phenylureido)phenyl]quinazoline]
CC(C)Nc1ncc2cc(-c3ccccc3Cl)c(O)c(-c3cccc(CC(=O)O)c3)c2n1 [Compound 96, 8-[3-(Carboxymethyl)phenyl]-6-(2-chlorophenyl)-7-hydroxy-2-(isopropylamino)quinazoline]
COc1c(-c2ccccc2Cl)cc2cnc(NC(C)C)nc2c1C(=O)N1CCCCC1 [Compound 67, 6-(2-Chlorophenyl)-2-isopropylamino-7-methoxy-8-(piperidinocarbonyl)quinazoline]
COc1cc2nc(NC(C)C)ncc2cc1-c1cc(NC(C)=O)ccc1C [Compound 230, 6-(5-Acetylamino-2-methylphenyl)-2-isopropylamino-7-methoxyquinazoline]
Cc1cccc(C(=O)c2cc3cnc(NC(C)C)nc3cc2O)c1 [Compound 118, 7-Hydroxy-2-isopropylamino-6-(3-methylbenzoyl)quinazoline]
COc1cc2nc(NC(C)C)ncc2cc1-c1cccc(NC(=O)c2ccc[nH]2)c1 [Compound 209, 2-Isopropylamino-7-methoxy-6-{3-[(1H-pyrrol-2-yl)carbonylamino]phenyl}quinazoline]
CNc1ncc2cc(-c3cc(NC(C)=O)ccc3C)c(OC)cc2n1 [Compound 250, 6-(5-Acetylamino-2-methylphenyl)-7-methoxy-2-(methylamino)quinazoline]
Cc1ccccc1-c1cc2cnc(Nc3c(Cl)cc([N+](=O)[O-])cc3Cl)nc2cc1O [Compound 179, 2-(2,6-Dichloro-4-nitroanilino)-7-hydroxy-6-(2-methylphenyl)quinazoline]
Cc1ccccc1-c1cc2cnc(N[C@@H](C)C(C)C)nc2cc1O [Compound 173, (S)-2-(3-methyl-2-butylamino)-7-hydroxy-6-(2-methylphenyl)quinazoline]
CC(=O)c1c(O)c(-c2ccccc2Cl)cc2cnc(NC(C)C)nc12 [Compound 78, 8-Acetyl-6-(2-chlorophenyl)-7-hydroxy-2-(isopropylamino)quinazoline]
